Test results taken from paper PMC3646678, “Sodium-calcium exchangers in rat trigeminal ganglion neurons” (Molecular Pain, 2013).

The compounds below were run on T1, NCX1 (Na+-Ca2+ exchanger) (assay: fura-2 Ca2+ influx by reverse NCX activity (Li+ for Na+ substitution) in native rat TG neurons).
T1 construct: gene Slc8a1
Format: cell-based
An IC50 of 3080 nM was found for N=C(N)SCCc1ccc(OCc2ccc([N+](=O)[O-])cc2)cc1 [KB-R7943] in this work. An IC50 of 30 nM was found for CCOc1ccc(Oc2ccc(OCc3cc(F)ccc3F)cc2)c(N)c1 [SEA0400, 2-[4-[(2,5-difluorophenyl)methoxy]phenoxy]-5-ethoxyaniline] in this work. An IC50 of 510 nM was found for CCOC(=O)C1CSC(Cc2ccc(OCc3ccc([N+](=O)[O-])cc3)cc2)N1 (stereo not drawn) [SN-6] in this work.
